Laboratory results taken from article PMC10718076, “1,2-Disubstituted bicyclo[2.1.1]hexanes as saturated bioisosteres of ortho-substituted benzene” (Chemical Science, 2023).

assay: physchem; details: pH 7.4, LogD, pH 7.4

Row | logD at 1 h | Compound
1 | 3.58 | O=C(NC1CC2CC1(c1ccc(Cl)cc1)C2)c1cccnc1Cl (stereo not shown) [Compound 28]
2 | 4.09 | Cn1cc(C(=O)Nc2ccc(F)cc2-c2ccc(Cl)c(Cl)c2)c(C(F)F)n1 [Bixafen, bixafen]
3 | 4.1 | Cn1cc(C(=O)NC2CC3CC2(c2ccc(Cl)c(Cl)c2)C3)c(C(F)F)n1 (stereo not shown) [Compound 29]
4 | 3.61 | Cn1cc(C(=O)NC2CC3CC2(c2cc(F)c(F)c(F)c2)C3)c(C(F)F)n1 (stereo not shown) [Compound 30]
